Measurements taken from PubChem BioAssay (NCI).
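Following 48 hours of exposure in 96-well plates, responses at five concentrations were used to interpolate endpoints linearly. GI50 marks 50% less growth. TGI is the concentration that stops growth completely.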

What was measured:
Assay in all cases: inhibition of tumour cell growth, NCI panel, 48 h
SF-268 CNS = tested on: SF-268 CNS
OVCAR-4 ovarian = tested on: OVCAR-4 ovarian
MOLT-4 leukemia = tested on: MOLT-4 leukemia
SNB-19 CNS = tested on: SNB-19 CNS
SN12C renal = tested on: SN12C renal
RPMI-8226 leukemia = tested on: RPMI-8226 leukemia
NCI-H522 lung = tested on: NCI-H522 lung
NCI-H226 lung = tested on: NCI-H226 lung
LOX IMVI melanoma = tested on: LOX IMVI melanoma
RXF 393 renal = tested on: RXF 393 renal

SMILES	TGI (SF-268 CNS)	TGI (OVCAR-4 ovarian)	TGI (MOLT-4 leukemia)	TGI (SNB-19 CNS)	TGI (SN12C renal)	TGI (RPMI-8226 leukemia)	TGI (NCI-H522 lung)	TGI (NCI-H226 lung)	TGI (LOX IMVI melanoma)	TGI (RXF 393 renal)	GI50 (SF-268 CNS)	GI50 (OVCAR-4 ovarian)	GI50 (MOLT-4 leukemia)	GI50 (SNB-19 CNS)	GI50 (SN12C renal)	GI50 (RPMI-8226 leukemia)	GI50 (NCI-H522 lung)	GI50 (NCI-H226 lung)	GI50 (LOX IMVI melanoma)	GI50 (RXF 393 renal)
CCOC(=O)/C(C#N)=C(/NNc1ccccc1)c1ccncc1C(=O)O	> 100 µM	> 100 µM	> 100 µM	> 100 µM	> 100 µM	> 100 µM	> 100 µM	> 100 µM	> 100 µM	> 100 µM										
Cc1cc(S(=O)(=O)Nc2nc3ccccc3n2-c2ccccc2)c(S)cc1Cl	> 100 µM	> 100 µM	> 100 µM	> 100 µM		> 100 µM	> 100 µM	> 100 µM	> 100 µM	> 100 µM										
Cc1nn(C)c2nc3ccc(Cl)cc3c(-c3ccccc3)c12	> 100 µM	> 100 µM	> 100 µM	> 100 µM	> 100 µM	> 100 µM	> 100 µM	> 100 µM		> 100 µM										
COc1cc(OC)cc(-c2n/c(=C\c3c(O)[nH]c4ccc(Cl)cc34)cc3c2=Nc2ccccc2-3)c1	11.4 µM	3.77 µM	4.74 µM	16.1 µM	17.2 µM	> 100 µM	10.5 µM	59.8 µM	4.34 µM	21.4 µM	3.35 µM	1.76 µM	2.18 µM	3.54 µM	3.73 µM	16.3 µM	3.09 µM	22.8 µM	1.92 µM	6.05 µM
CC(C)(C)c1cc(C(=O)/C=C/c2ccn[nH]2)cc(C(C)(C)C)c1O	6.39 µM	18 µM	10.1 µM	9.91 µM	3.6 µM	3.37 µM	2.73 µM	11.6 µM	3.48 µM	3.19 µM										
CCOC(=O)C(NC(=O)CC)(Nc1ccc(S(=O)(=O)Nc2nc(C)cc(C)n2)cc1)C(F)(F)F (centres undefined)	> 100 µM	> 100 µM	> 100 µM	> 100 µM	> 100 µM	> 100 µM	> 100 µM	> 100 µM	> 100 µM	> 100 µM										
CC(C)(C)OC(=O)NCC(=O)NC1C/C(=N\O)c2sccc21 (centres undefined)	> 100 µM	> 100 µM	> 100 µM	> 100 µM	> 100 µM			> 100 µM	> 100 µM	> 100 µM										
CC(C)C(C/C=C1/CC(CO)(COC(=O)C2CCCCC2)OC1=O)C(C)C (centres undefined)	33.8 µM	41.4 µM	94.8 µM	29.8 µM	31.9 µM		34.1 µM	48.6 µM	29.4 µM	40.9 µM										
O=S1(=O)C(c2ccccc2)=C(O)c2ccccc21	> 100 µM	> 100 µM	> 100 µM	> 100 µM		> 100 µM	> 100 µM	> 100 µM	> 100 µM	> 100 µM										
COc1cc(C(c2cccc3ccccc23)N2C(=O)CCC2C(=O)NCc2ccccc2)cc(OC)c1OC (centres undefined)	> 100 µM	> 100 µM	> 100 µM	> 100 µM	> 100 µM	> 100 µM	> 100 µM	> 100 µM	> 100 µM	> 100 µM										
